Measured values taken from ChEMBL document CHEMBL5370555, “Design, synthesis, and evaluation of PD-1/PD-L1 small-molecule inhibitors bearing a rigid indane scaffold” (Eur J Med Chem, 2023).
Calls of active or inactive are those of the source. The rule behind the calls is not given here.

Assays:
[1] = biological target: Programmed cell death protein 1/Programmed cell death 1 ligand 1 (Homo sapiens, UniProt Q15116+Q9NZQ7); test: Inhibition of PD-1/PD-L1 (unknown origin) protein-protein interaction incubated for 15 mins by TR-FRET assay; format: protein-complex assay
Programmed cell death protein 1/Programmed cell death 1 ligand 1, sequence (Q15116 whole entry): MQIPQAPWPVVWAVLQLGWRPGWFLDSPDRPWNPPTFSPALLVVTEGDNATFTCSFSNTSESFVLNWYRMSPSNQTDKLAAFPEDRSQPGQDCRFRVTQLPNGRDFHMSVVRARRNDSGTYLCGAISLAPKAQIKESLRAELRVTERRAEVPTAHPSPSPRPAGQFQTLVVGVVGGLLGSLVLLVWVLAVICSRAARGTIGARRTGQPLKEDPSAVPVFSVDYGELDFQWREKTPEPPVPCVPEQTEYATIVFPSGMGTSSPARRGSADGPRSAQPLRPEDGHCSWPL
Programmed cell death protein 1/Programmed cell death 1 ligand 1, sequence (Q9NZQ7 whole entry): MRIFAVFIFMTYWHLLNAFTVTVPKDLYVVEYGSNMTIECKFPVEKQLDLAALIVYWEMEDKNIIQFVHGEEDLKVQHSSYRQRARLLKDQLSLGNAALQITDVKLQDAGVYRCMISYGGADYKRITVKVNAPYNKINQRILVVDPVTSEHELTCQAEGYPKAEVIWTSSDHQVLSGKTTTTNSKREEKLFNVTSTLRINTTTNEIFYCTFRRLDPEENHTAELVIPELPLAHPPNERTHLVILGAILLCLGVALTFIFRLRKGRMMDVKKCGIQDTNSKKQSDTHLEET

[2] = system: MDA-MB-231; test: (§1) Antitumor immunity against human MDA-MB-231 cells cocultured with CD3/CD28/CD2 T cell activator stimulated human PBMC cells assessed as killing activity cell mortality rate at 0.5 uM pre-treated with compound for 2 hrs followed by addition of CD3/CD28/CD2 T cell activator stimulated human PBMC cells and measured after 12 hrs relative to control; format: functional; conditions: time 14 hrs
[3] = system: PBMC; test: Cytotoxicity against human PBMC cells at < 8 uM incubated for 24 hrs by CCK-8 method; format: toxicity, cell-based
[4] = system: Jurkat; test: Cytotoxicity against human Jurkat cells at < 8 uM incubated for 24 hrs by CCK-8 method; format: functional, cell-based
[5] = system: MDA-MB-231; test: Cytotoxicity against human MDA-MB-231 cells at 8 uM incubated for 24 hrs by CCK-8 method; format: functional, cell-based
[6] = system: RKO; test: Cytotoxicity against human RKO cells at 8 uM incubated for 24 hrs by CCK-8 method; format: functional, cell-based
[7] = system: MDA-MB-231; test: Cytotoxicity against human MDA-MB-231 cells at 1.0 uM incubated for 24 hrs by CCK-8 method; format: functional, cell-based
[8] = system: MDA-MB-231; test: as §1, with “activity” for “activity cell mortality rate”, “0.25 to 1” for “0.5”, “hrs” for “hrs relative to control”; format: functional, cell-based; conditions: dose 0.25-1 µM, time 14.0 hrs
[9] = system: Jurkat; test: Restoration of PD-L1 mediated IFN-gamma release in anti-CD3/CD28 stimulated human Jurkat cells at 0.5 uM incubated for 24 hrs by ELISA method; format: functional, cell-based
[10] = system: Jurkat; test: Restoration of PD-L1 mediated IFN-gamma release in anti-CD3/CD28 stimulated human Jurkat cells incubated for 24 hrs by ELISA method; format: functional, cell-based; conditions: dose 0.25-2 µM

How did the IC50 [1] turn out when `COc1nc(O[C@H]2CCc3c(-c4ccc5ccccc5c4)cccc32)c(Cl)cc1CNCCO` was run?
The IC50 was > 100 nM.

`COc1nc(O[C@H]2CCCc3c(-c4ccccc4)cccc32)ccc1CNCCNC(C)=O` was tested. Which IC50 [1] did it give?
Its IC50 is 47.6 nM.

For `COc1nc(O[C@H]2CCc3c(-c4ccccc4)cccc32)ccc1CNCCNC(C)=O`, which IC50 [1] is on record?
Its IC50 is 21 nM.

With `COc1nc(O[C@H]2CCc3c(-c4ccc5c(c4)OCCO5)cccc32)c(Cl)cc1CN1CC[C@H](O)C1` as the compound, how does the IC50 [1] read?
Its IC50 is 18 nM.

Which IC50 [1] does the source give for `COc1nc(O[C@H]2CCc3c(-c4ccccc4)cccc32)c(Cl)cc1CNCCO` here?
Its IC50 is 7.5 nM.

How did the IC50 [1] turn out when `COCCOc1cccc(-c2cccc3c2CC[C@@H]3Oc2nc(OC)c(CNCCO)cc2Cl)c1` was run?
Its IC50 is 94.5 nM.

How did the mortality at 0.5 µM [2] turn out when `COc1nc(OCc2cccc(-c3ccccc3)c2C)ccc1CNCCNC(C)=O` was run?
The mortality at 0.5 µM was 45.1%.

For `COc1nc(O[C@H]2CCc3c(-c4ccc(F)c(F)c4)cccc32)c(Cl)cc1CNCCO`, which IC50 [1] is on record?
Its IC50 is 55.6 nM.

For `COc1nc(O[C@@H]2CCc3c(-c4ccc5c(c4)OCCO5)cccc32)c(Cl)cc1CN1CC(O)C1`, which IC50 [1] is on record?
Its IC50 is 19.6 nM.

With `COc1nc(O[C@@H]2CCc3c(-c4ccccc4)cccc32)ccc1CNCCO` as the compound, how does the IC50 [1] read?
The IC50 was 57.8 nM.

How did the IC50 [1] turn out when `COc1nc(O[C@H]2CCc3c(-c4ccc5c(c4)OCCO5)cccc32)c(Cl)cc1CNCCN(C)C` was run?
The IC50 was 46.2 nM.

For `COc1nc(O[C@H]2CCc3c(-c4ccc5c(c4)OCCO5)cccc32)c(Cl)cc1CN1CC[C@@H](O)C1`, which IC50 [1] is on record?
The IC50 was 69.4 nM.

`COc1nc(O[C@@H]2CCc3c(-c4ccccc4)cccc32)ccc1CNCCNC(C)=O` was tested. Which IC50 [1] did it give?
The IC50 was 84.8 nM.

With `COc1nc(O[C@H]2CCc3c(-c4ccc5c(c4)OCCO5)cccc32)c(Cl)cc1CNC[C@@H]1CCC(=O)N1` as the compound, how does the IC50 [1] read?
Its IC50 is 15.7 nM.

`COc1nc(O[C@H]2CCc3c(-c4ccc5c(c4)OCO5)cccc32)c(Cl)cc1CNCCO` was tested. Which IC50 [1] did it give?
Its IC50 is 24.9 nM.

Which IC50 [1] does the source give for `COc1nc(O[C@H]2CCc3c(-c4ccc5c(c4)OCCO5)cccc32)c(Cl)cc1CNC[C@@H](O)CO` here?
Its IC50 is 13.3 nM.

How did the IC50 [1] turn out when `COc1nc(O[C@H]2CCc3c(-c4cccc(F)c4)cccc32)c(Cl)cc1CNCCO` was run?
The IC50 was 24.7 nM.

For `COc1nc(O[C@H]2CCc3c(-c4ccc5c(c4)OCCO5)cccc32)c(Br)cc1CNCCO`, which IC50 [1] is on record?
The IC50 was 51 nM.

`COc1nc(O[C@H]2CCc3c(-c4ccc5c(c4)OCCO5)cccc32)c(Cl)cc1CNCCC(N)=O` was tested. Which IC50 [1] did it give?
Its IC50 is 20.3 nM.

Which IC50 [1] does the source give for `COc1nc(O[C@H]2CCc3c(-c4ccccc4F)cccc32)c(Cl)cc1CNCCO` here?
Its IC50 is 2.2 nM.

What about the Activity [3] of the same compound?
The Activity was “Non-Toxic”.

And the Activity [4]?
Its Activity is “Active”.

What about the Activity [5] of the same compound?
Its Activity is “Active”.

And the Activity [6]?
The Activity was “Active”.

What about the Activity [7] of the same compound?
Its Activity is “inactive”.

What about the Activity [8] of the same compound?
The Activity was “Active”.

And the mortality at 0.5 µM [2]?
Its mortality at 0.5 µM is 40.9%.

What about the Activity [9] of the same compound?
The Activity was “Active”.

And the Activity [10]?
The Activity was “Dose-Dependent Effect”.

With `COc1cccc(-c2cccc3c2CC[C@@H]3Oc2nc(OC)c(CNCCO)cc2Cl)c1` as the compound, how does the IC50 [1] read?
The IC50 was > 100 nM.

`COc1nc(O[C@H]2CCc3c(-c4ccc5c(c4)OCCO5)cccc32)c(Cl)cc1CNCCO` was tested. Which IC50 [1] did it give?
Its IC50 is 10.2 nM.

`COc1nc(O[C@H]2CCCc3c(-c4ccccc4)cccc32)ccc1CNCCO` was tested. Which IC50 [1] did it give?
The IC50 was > 100 nM.

`COc1nc(O[C@H]2CCc3c(-c4ccccc4)cccc32)ccc1CNCCO` was tested. Which IC50 [1] did it give?
The IC50 was 24.4 nM.

How did the IC50 [1] turn out when `COc1nc(O[C@H]2CCc3c(-c4ccc5[nH]ccc5c4)cccc32)c(Cl)cc1CNCCO` was run?
The IC50 was > 100 nM.

With `COc1ccc(-c2cccc3c2CC[C@@H]3Oc2nc(OC)c(CNCCO)cc2Cl)cc1OC` as the compound, how does the IC50 [1] read?
The IC50 was > 100 nM.

`COc1nc(O[C@H]2CCc3c(-c4ccc5c(c4)OCCO5)cccc32)c(Cl)cc1CNCC(F)(F)F` was tested. Which IC50 [1] did it give?
The IC50 was 67 nM.

For `COCCNCc1cc(Cl)c(O[C@H]2CCc3c(-c4ccc5c(c4)OCCO5)cccc32)nc1OC`, which IC50 [1] is on record?
The IC50 was 43.1 nM.

`COc1nc(O[C@H]2CCc3c(-c4ccc5c(c4)OCCO5)cccc32)c(Cl)cc1CNC[C@@H](O)CC(=O)O` was tested. Which IC50 [1] did it give?
Its IC50 is 14 nM.

How did the IC50 [1] turn out when `COc1nc(O[C@H]2CCc3c(-c4ccc5c(c4)OCCO5)cccc32)c(Cl)cc1CN1CC[C@H](C(=O)O)C1` was run?
Its IC50 is 16.4 nM.

How did the IC50 [1] turn out when `COc1nc(O[C@H]2CCc3c(-c4ccc(F)cc4)cccc32)c(Cl)cc1CNCCO` was run?
Its IC50 is 37.8 nM.

`COc1nc(O[C@H]2CCc3c(-c4ccc5c(c4)OCCO5)cccc32)c(Cl)cc1CNCCNC(C)=O` was tested. Which IC50 [1] did it give?
Its IC50 is 16.3 nM.
